The values that follow come from ChEMBL document CHEMBL1152560, “Substituted 2-arylbenzothiazoles as kinase inhibitors: hit-to-lead optimization” (Bioorg Med Chem, 2009).

Experiment [1] has as its target Death-associated protein kinase 1 (Homo sapiens) (UniProt P53355). Description: Residual activity of DAPK1 at 10 uM by microplate scintillation counting.
In experiment [2] the target is Casein kinase I isoform gamma-3 (Homo sapiens) (UniProt Q9Y6M4). Put plainly: Residual activity of CK1gamma3 at 10 uM by microplate scintillation counting.
Experiment [3] deals with PAS domain-containing serine/threonine-protein kinase (Homo sapiens) (UniProt Q96RG2). Put plainly: Residual activity of PASK at 10 uM by microplate scintillation counting.
The target of experiment [4] is Protein kinase C eta type (Homo sapiens) (UniProt P24723). Description: Residual activity of PKCeta at 0.1 uM by microplate scintillation counting.
The target of experiment [5] is LIM domain kinase 1 (Homo sapiens) (UniProt P53667). Put plainly: Residual activity of LIMK1 at 0.1 uM by microplate scintillation counting.
The target of experiment [6] is T1, TGF-beta receptor type-1 (Homo sapiens) (UniProt P36897).
T1 sequence (whole entry): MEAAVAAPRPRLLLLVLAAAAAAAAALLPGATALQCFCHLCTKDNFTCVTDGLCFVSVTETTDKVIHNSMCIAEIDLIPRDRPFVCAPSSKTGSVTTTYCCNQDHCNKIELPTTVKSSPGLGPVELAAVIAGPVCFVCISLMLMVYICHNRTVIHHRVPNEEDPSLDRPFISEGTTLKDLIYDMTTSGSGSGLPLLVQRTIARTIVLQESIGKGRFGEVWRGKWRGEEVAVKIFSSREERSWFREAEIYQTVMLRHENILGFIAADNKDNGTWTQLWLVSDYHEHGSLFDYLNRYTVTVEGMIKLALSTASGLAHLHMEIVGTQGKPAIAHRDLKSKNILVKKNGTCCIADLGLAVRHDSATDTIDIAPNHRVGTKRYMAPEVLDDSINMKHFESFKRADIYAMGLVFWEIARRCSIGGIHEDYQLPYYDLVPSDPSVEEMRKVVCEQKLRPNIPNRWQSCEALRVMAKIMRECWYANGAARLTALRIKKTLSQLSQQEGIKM
Put plainly: Residual activity of TGFB-R1 at 1 uM by microplate scintillation counting.

Experiment [7] deals with Tyrosine-protein kinase HCK (Homo sapiens) (UniProt P08631). Description: Residual activity of HCK at 10 uM by microplate scintillation counting.
In experiment [8] the target is Cyclin-dependent kinase 5/CDK5 activator 1 (Homo sapiens) (UniProt Q00535+Q15078). Description: Residual activity of CDK5/p35NCK at 0.1 uM by microplate scintillation counting. The experiment is classed as protein-complex assay.
The target in experiment [9] is Serine/threonine-protein kinase PLK1 (Homo sapiens) (UniProt P53350). Description: Residual activity of PLK1 at 0.1 uM by microplate scintillation counting.
Experiment [10] addresses T2, Eukaryotic translation initiation factor 2-alpha kinase 3 (Homo sapiens) (UniProt Q9NZJ5).
T2 sequence (whole entry): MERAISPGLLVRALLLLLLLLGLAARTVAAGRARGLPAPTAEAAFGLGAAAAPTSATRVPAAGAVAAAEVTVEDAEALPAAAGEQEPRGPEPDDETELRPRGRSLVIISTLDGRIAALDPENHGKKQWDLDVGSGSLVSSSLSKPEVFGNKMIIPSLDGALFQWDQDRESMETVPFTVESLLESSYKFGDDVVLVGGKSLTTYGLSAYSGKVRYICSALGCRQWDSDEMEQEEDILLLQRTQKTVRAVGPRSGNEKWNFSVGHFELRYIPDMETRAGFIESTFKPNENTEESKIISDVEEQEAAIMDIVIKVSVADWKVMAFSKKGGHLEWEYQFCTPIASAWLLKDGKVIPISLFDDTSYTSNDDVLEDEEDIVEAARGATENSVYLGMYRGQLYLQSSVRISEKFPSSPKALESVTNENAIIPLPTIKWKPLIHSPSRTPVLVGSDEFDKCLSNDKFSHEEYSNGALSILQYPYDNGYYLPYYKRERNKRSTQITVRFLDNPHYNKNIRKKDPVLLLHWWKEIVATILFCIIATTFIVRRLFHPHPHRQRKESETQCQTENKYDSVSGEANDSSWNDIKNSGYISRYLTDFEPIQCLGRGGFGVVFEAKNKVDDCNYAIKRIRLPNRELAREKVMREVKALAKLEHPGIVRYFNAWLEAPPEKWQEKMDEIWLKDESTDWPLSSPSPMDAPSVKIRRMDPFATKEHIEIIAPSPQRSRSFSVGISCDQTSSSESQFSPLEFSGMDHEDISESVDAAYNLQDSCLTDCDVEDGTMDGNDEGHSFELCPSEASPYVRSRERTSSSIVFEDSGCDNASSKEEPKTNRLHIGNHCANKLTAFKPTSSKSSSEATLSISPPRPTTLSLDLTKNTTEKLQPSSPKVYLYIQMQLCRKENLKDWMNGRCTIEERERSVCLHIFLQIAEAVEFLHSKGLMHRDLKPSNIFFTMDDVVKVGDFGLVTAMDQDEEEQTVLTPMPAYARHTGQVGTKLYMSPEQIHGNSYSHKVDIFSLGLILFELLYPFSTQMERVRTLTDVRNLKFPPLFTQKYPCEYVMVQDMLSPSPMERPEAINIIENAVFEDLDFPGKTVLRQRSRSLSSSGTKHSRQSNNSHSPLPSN
Put plainly: Residual activity of EIF2AK3 at 1 uM by microplate scintillation counting.

For experiment [11], the target named is T3, Inhibitor of nuclear factor kappa-B kinase subunit alpha (Homo sapiens) (UniProt O15111).
T3 sequence (whole entry): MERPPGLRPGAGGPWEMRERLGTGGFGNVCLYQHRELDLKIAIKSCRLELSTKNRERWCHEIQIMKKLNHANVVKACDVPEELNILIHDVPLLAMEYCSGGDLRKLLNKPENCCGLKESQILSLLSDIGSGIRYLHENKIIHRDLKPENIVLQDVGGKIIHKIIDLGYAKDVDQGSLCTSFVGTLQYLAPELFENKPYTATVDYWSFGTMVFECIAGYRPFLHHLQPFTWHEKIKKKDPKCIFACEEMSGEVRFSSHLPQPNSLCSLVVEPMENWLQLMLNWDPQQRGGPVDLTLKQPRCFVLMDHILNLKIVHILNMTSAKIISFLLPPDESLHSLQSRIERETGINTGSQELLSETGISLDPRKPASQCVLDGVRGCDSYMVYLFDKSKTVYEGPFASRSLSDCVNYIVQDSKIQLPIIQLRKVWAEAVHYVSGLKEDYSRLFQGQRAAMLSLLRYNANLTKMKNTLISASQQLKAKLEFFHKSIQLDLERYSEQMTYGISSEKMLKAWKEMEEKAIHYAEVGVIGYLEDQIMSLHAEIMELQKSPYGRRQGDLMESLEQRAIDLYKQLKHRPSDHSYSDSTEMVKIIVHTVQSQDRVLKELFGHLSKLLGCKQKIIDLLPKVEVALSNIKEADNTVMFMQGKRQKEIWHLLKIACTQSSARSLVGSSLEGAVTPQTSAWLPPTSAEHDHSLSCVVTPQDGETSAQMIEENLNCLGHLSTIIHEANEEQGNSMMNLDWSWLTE
Description: Residual activity of IKKalpha at 0.1 uM by microplate scintillation counting.

Chain of Serine/threonine-protein kinase PLK1 (Homo sapiens) (P53350 whole entry): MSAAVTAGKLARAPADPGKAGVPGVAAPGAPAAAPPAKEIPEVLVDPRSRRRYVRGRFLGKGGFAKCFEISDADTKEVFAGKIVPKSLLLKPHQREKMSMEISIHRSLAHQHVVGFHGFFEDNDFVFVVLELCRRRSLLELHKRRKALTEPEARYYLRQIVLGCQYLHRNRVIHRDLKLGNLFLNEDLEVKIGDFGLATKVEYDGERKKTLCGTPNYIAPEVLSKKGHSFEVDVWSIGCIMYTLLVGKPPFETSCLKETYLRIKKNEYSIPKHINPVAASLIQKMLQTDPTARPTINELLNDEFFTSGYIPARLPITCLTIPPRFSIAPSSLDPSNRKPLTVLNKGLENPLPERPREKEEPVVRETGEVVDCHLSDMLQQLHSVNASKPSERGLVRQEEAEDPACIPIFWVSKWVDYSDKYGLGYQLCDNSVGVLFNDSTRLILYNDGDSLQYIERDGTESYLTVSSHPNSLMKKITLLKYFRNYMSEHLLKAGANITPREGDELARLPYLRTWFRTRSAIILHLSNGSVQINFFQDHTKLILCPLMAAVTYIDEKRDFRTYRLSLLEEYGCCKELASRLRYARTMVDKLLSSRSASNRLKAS
Chain of LIM domain kinase 1 (Homo sapiens) (P53667 whole entry, looked up, the tested form may be a part): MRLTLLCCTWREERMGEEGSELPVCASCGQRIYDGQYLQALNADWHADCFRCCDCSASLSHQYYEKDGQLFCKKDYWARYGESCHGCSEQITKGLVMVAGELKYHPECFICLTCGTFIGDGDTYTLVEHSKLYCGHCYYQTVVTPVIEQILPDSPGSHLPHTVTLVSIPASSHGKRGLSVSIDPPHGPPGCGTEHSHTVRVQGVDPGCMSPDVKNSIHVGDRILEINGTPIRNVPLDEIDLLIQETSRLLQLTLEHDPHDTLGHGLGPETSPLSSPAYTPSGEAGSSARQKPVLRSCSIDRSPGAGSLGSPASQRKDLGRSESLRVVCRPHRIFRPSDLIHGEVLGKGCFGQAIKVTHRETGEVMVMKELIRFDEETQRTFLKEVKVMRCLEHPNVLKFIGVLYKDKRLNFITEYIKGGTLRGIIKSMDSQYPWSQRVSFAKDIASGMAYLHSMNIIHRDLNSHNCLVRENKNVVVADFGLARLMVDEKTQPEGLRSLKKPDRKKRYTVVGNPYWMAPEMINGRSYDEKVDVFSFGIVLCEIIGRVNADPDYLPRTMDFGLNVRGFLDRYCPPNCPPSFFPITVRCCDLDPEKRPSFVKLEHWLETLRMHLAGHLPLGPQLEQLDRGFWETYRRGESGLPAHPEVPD
Chain of Death-associated protein kinase 1 (Homo sapiens) (P53355 whole entry, looked up, canonical isoform): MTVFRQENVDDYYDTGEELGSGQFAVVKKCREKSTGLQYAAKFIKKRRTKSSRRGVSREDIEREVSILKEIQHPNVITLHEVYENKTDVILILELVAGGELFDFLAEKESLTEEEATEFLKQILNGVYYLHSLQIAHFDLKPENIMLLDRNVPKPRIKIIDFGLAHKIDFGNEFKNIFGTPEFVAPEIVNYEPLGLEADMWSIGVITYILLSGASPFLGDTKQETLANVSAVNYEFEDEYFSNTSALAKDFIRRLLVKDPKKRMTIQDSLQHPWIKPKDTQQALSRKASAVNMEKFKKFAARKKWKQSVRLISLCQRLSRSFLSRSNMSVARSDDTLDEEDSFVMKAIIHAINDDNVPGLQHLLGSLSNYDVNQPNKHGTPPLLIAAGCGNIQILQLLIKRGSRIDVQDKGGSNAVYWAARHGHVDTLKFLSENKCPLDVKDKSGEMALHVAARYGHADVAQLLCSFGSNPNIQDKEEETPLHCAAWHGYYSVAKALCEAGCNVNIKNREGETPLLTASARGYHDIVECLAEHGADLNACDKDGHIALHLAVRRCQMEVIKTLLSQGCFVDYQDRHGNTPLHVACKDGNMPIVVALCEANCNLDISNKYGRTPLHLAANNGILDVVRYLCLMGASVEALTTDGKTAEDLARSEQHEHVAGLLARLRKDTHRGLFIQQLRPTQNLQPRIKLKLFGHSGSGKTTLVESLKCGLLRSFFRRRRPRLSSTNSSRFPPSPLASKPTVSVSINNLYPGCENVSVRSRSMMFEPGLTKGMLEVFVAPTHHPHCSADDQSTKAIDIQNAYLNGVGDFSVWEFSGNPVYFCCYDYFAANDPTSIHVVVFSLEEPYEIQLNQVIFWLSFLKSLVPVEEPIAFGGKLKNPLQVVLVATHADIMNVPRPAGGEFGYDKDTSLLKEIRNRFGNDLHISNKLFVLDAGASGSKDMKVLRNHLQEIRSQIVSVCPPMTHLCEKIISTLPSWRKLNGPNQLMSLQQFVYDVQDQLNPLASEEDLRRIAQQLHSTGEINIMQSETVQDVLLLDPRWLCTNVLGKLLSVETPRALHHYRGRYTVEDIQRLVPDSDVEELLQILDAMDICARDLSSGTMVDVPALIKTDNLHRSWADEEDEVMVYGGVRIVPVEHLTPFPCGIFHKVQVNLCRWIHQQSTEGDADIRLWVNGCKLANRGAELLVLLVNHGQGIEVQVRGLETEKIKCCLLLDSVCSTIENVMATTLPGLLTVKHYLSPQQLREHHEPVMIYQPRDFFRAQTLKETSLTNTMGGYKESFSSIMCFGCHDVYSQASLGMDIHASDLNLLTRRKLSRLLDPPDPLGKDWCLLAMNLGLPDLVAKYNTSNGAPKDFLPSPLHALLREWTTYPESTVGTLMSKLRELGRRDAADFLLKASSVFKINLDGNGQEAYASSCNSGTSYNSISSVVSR
Chain of Cyclin-dependent kinase 5/CDK5 activator 1 (Homo sapiens) (Q00535 whole entry): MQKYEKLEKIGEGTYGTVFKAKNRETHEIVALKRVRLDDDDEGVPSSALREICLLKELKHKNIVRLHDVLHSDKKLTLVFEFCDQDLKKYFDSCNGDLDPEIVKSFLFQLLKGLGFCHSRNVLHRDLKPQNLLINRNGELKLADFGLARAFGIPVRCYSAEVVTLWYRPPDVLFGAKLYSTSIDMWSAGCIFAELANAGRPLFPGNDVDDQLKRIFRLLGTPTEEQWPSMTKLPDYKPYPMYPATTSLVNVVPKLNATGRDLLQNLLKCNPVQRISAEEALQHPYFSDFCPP
Chain of Cyclin-dependent kinase 5/CDK5 activator 1 (Homo sapiens) (Q15078 99-307 partner limits assumed): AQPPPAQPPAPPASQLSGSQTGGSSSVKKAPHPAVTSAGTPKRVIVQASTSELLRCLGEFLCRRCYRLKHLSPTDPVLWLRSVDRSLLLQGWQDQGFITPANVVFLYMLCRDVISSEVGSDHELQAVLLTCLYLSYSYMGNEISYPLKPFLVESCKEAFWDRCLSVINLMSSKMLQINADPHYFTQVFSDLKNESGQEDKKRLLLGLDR
Chain of PAS domain-containing serine/threonine-protein kinase (Homo sapiens) (Q96RG2 whole entry, the tested form may be a part): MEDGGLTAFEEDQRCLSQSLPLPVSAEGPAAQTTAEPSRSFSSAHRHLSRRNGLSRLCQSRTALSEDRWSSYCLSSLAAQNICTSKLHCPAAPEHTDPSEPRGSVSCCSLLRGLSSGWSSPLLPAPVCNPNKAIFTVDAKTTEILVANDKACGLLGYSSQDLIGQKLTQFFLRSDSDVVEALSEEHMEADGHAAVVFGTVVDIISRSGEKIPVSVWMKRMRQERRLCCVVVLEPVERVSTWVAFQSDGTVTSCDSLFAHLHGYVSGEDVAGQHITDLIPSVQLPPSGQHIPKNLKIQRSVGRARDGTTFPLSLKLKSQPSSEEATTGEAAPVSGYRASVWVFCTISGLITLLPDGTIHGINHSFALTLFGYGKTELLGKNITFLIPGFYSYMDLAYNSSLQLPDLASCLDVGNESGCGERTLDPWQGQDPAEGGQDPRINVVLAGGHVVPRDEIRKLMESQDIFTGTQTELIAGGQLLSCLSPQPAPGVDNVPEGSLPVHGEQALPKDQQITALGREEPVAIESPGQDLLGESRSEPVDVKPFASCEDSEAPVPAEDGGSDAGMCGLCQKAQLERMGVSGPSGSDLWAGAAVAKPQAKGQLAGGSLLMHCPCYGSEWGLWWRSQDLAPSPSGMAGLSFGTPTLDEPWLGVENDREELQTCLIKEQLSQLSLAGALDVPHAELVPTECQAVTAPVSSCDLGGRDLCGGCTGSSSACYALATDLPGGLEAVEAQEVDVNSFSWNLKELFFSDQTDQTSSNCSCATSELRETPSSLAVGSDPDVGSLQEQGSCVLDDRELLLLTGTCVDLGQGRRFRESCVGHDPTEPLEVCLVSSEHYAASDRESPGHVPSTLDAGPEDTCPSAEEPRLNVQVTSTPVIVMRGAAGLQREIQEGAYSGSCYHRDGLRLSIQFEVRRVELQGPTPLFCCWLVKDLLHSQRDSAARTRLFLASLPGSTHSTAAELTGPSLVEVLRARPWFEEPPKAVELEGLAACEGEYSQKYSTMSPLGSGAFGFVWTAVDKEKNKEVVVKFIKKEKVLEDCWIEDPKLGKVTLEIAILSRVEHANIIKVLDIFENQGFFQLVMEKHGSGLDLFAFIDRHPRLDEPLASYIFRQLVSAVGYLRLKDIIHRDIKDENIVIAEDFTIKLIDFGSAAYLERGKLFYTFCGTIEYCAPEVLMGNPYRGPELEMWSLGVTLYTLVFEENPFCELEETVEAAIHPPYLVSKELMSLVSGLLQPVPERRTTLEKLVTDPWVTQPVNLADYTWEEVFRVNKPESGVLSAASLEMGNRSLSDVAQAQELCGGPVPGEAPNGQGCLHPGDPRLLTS
Chain of Casein kinase I isoform gamma-3 (Homo sapiens) (Q9Y6M4 whole entry, looked up, the tested form may be a part, canonical isoform): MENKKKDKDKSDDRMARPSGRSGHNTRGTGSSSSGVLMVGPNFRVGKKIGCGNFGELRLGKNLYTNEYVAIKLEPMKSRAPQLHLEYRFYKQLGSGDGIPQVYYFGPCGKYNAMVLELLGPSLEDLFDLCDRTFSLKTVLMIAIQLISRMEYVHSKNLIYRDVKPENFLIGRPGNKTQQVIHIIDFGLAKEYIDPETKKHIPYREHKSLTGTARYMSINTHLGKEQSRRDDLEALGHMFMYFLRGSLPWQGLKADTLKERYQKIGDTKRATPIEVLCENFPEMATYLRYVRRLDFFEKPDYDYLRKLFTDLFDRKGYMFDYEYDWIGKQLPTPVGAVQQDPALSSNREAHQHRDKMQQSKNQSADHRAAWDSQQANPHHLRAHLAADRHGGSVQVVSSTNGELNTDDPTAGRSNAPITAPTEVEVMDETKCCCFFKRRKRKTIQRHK

For `COc1cc2c(Oc3ccc(-c4nc5ccccc5s4)cc3)ncnc2cc1OCCCN1CCCC1`, the residual activity in [1] amounted to 25%; in [2], 101%; in experiment [3], 83%; in experiment [4], 117%; in experiment [5], 76%; in [6] it was 98%. Also, the residual activity was 187% in experiment [7]; 94% in [8]; 91% in experiment [9]; 102% in experiment [10]; 89% in experiment [11].
Consider `COc1cc2c(Oc3ccc(-c4nc5ccccc5s4)cc3F)ncnc2cc1OCCCN1CCN(C)CC1`, for which the residual activity in experiment [1] came out at 15%; in experiment [2], 105%; in [3], 79%; in experiment [4] it was 104%; in [5], 77%; in experiment [6] it was 107%. The residual activity in experiment [7] is 78%; in experiment [8] it was 83%; in experiment [9], 98%; in experiment [10], 90%; in [11] it was 81%.
Regarding `COc1cc2c(Oc3ccc(-c4nc5ccccc5s4)cc3)ncnc2cc1OCCCN1CCN(C)CC1`, the residual activity in experiment [1] turned out to be 24%; in [2], 107%; in [3], 96%; in experiment [4], 97%; in experiment [5], 68%; in experiment [6] it was 103%. In addition, the residual activity came to 155% in experiment [7]; 93% in [8]; 94% in experiment [9]; 100% in experiment [10]; 87% in [11].
